Test results taken from the CheMixHub ionic liquid set.

Assay: xn = mol fraction of the nth substance listed

CCCCCCCC/C=C\CCCCCCCC(=O)O + CC[N+](CC)(CC)CC.[Cl-]
100 kPa, x2 = 0.25
Conditions | viscosity [mPa·s]
293.1 K | 268.5
313.2 K | 95.4
323.2 K | 61.9

CC#N + CC[NH3+].O=[N+]([O-])[O-]
Conditions | viscosity [mPa·s]
308.19 K, 100 kPa, x2 = 0 | 0.302

CC[NH2+]CC.O=[N+]([O-])[O-] + CC[NH3+].O=[N+]([O-])[O-]
101 kPa, frequency 0.00293 MHz
Conditions | electrical conductivity [S/m]
293.15 K, x1 = 0.0998 | 1.73
293.15 K, x1 = 0.3501 | 1.46
308.15 K, x1 = 0.0499 | 2.78
313.15 K, x1 = 0.1999 | 2.79
313.15 K, x1 = 0.3501 | 2.63
318.15 K, x1 = 0.0998 | 3.44
318.15 K, x1 = 0.1499 | 3.39
323.15 K, x1 = 0.1499 | 3.79
323.15 K, x1 = 0.1999 | 3.53

101 kPa
Conditions | viscosity [mPa·s]
293.15 K, x1 = 0.0998 | 43.2
298.15 K, x1 = 0.2501 | 38.3
308.15 K, x1 = 0.0499 | 27
313.15 K, x1 = 0.1999 | 25.1
313.15 K, x1 = 0.3501 | 24.9
318.15 K, x1 = 0.0998 | 19.7
318.15 K, x1 = 0.2998 | 20.3
323.15 K, x1 = 0.1499 | 17.9
323.15 K, x1 = 0.1999 | 19.1
328.15 K, x1 = 0.0998 | 15.3
338.15 K, x1 = 0.2998 | 12.2
353.15 K, x1 = 0.0998 | 8.96
353.15 K, x1 = 0.1499 | 8.99
353.15 K, x1 = 0.1999 | 9.7
353.15 K, x1 = 0.3501 | 9.47

CCCC[n+]1ccccc1.[Cl-] + CC[n+]1ccccc1.[Br-]
101 kPa
Conditions | viscosity [mPa·s]
388.1 K, x2 = 0.484 | 30
388.1 K, x2 = 0.694 | 23.1
393.1 K, x2 = 0.64 | 21.6
393.1 K, x2 = 0.797 | 18.11
403.1 K, x2 = 0.408 | 21.2
403.1 K, x2 = 0.604 | 17.39
408.1 K, x2 = 0.64 | 14.86
408.1 K, x2 = 0.797 | 12.97
413.1 K, x2 = 0.193 | 19.5
413.1 K, x2 = 0.64 | 13.22
413.1 K, x2 = 0.694 | 12.73
413.1 K, x2 = 0.797 | 11.67
418.1 K, x2 = 0.104 | 18.3
418.1 K, x2 = 0.64 | 11.81
418.1 K, x2 = 0.694 | 11.42
423.1 K, x2 = 0.313 | 13.73
423.1 K, x2 = 0.797 | 9.52
423.1 K, x2 = 0.894 | 8.8
428.1 K, x2 = 0.313 | 12.22
428.1 K, x2 = 0.604 | 9.82
428.1 K, x2 = 0.694 | 9.28
433.1 K, x2 = 0.484 | 9.72
433.1 K, x2 = 0.64 | 8.61
438.1 K, x2 = 0.604 | 8.04
438.1 K, x2 = 0.894 | 6.68
443.1 K, x2 = 0.64 | 7.11
443.1 K, x2 = 0.797 | 6.56

CN1CCCC1=O + CC[n+]1ccn(C)c1.COS(=O)(=O)[O-]
Conditions | viscosity [mPa·s]
313.15 K, 101 kPa, x1 = 1 | 1.31

CC#N + CC[n+]1ccn(C)c1.F[B-](F)(F)F
viscosity [mPa·s]
Conditions | 303.15 K | 313.15 K | 323.15 K | 333.15 K
100 kPa, x1 = 1 | 0.354 | – | – | –
101 kPa, x2 = 0 | 0.326 | 0.297 | 0.272 | 0.249

CC(=O)c1ccccc1 + CC[n+]1ccn(C)c1.F[B-](F)(F)F
100 kPa
Conditions | viscosity [mPa·s]
293.15 K, x1 = 0.2999 | 19.7
293.15 K, x1 = 0.4003 | 16
303.15 K, x1 = 0.094 | 16.9
303.15 K, x1 = 0.4989 | 8.9
313.15 K, x1 = 0.8918 | 2.09
313.15 K, x1 = 0.9498 | 1.68
323.15 K, x1 = 0.094 | 9.4
323.15 K, x1 = 0.4003 | 6.3
323.15 K, x1 = 0.4989 | 4.73
333.15 K, x1 = 0.0416 | 9.1
333.15 K, x1 = 0.094 | 7.5
333.15 K, x1 = 0.4003 | 5
333.15 K, x1 = 0.8918 | 1.52
333.15 K, x1 = 0.9498 | 1.23
333.15 K, x1 = 1 | 1.09

CN(C)C=O + CC[n+]1ccn(C)c1.F[B-](F)(F)F
101 kPa, x1 = 1
Conditions | viscosity [mPa·s]
313.15 K | 0.667
333.15 K | 0.541

CCCCn1cc[n+](CCOCCOCCOCCOCC[n+]2ccn(CCCC)c2)c1.O=S(=O)([N-]S(=O)(=O)C(F)(F)F)C(F)(F)F.O=S(=O)([N-]S(=O)(=O)C(F)(F)F)C(F)(F)F + CC[n+]1ccn(C)c1.N#C[N-]C#N + O=S(=O)([N-]S(=O)(=O)C(F)(F)F)C(F)(F)F.[Li+]
100 kPa, x1 = 0.1333, x2 = 0.7621
Conditions | electrical conductivity [S/m]
298 K | 0.835
303 K | 0.94
313 K | 1.17
323 K | 1.52
333 K | 1.8
343 K | 2.06

CCCCn1cc[n+](CCOCC[n+]2ccn(CCCC)c2)c1.O=S(=O)([N-]S(=O)(=O)C(F)(F)F)C(F)(F)F.O=S(=O)([N-]S(=O)(=O)C(F)(F)F)C(F)(F)F + CC[n+]1ccn(C)c1.N#C[N-]C#N + O=S(=O)([N-]S(=O)(=O)C(F)(F)F)C(F)(F)F.[Li+]
100 kPa, x1 = 0.1503, x2 = 0.7472
Conditions | electrical conductivity [S/m]
298 K | 0.512
303 K | 0.654
313 K | 0.829
323 K | 1.11
333 K | 1.45
343 K | 1.84

C[N+]1(CCOCCOCCOCCOCC[N+]2(C)CCCC2)CCCC1.O=S(=O)([N-]S(=O)(=O)C(F)(F)F)C(F)(F)F.O=S(=O)([N-]S(=O)(=O)C(F)(F)F)C(F)(F)F + CC[n+]1ccn(C)c1.N#C[N-]C#N + O=S(=O)([N-]S(=O)(=O)C(F)(F)F)C(F)(F)F.[Li+]
100 kPa, x1 = 0.1429, x2 = 0.7537
Conditions | electrical conductivity [S/m]
298 K | 0.47
303 K | 0.56
313 K | 0.77
323 K | 1.08
333 K | 1.34
343 K | 1.63

CCOC(C)=O + CC[n+]1ccn(C)c1.O=S(=O)([N-]S(=O)(=O)C(F)(F)F)C(F)(F)F
Conditions | viscosity [mPa·s]
303.15 K, 100 kPa, x1 = 1 | 0.39

CN(C)C=O + CC[n+]1ccn(C)c1.O=S(=O)([O-])C(F)(F)F
Conditions | viscosity [mPa·s]
298.15 K, 100 kPa, x1 = 1 | 0.81

CN(C)C=O + CC[n+]1ccn(C)c1.[Cl-]
Conditions | viscosity [mPa·s]
288.15 K, 101 kPa, x1 = 1 | 0.94

CC#N + CC[n+]1ccn(C)c1C.F[B-](F)(F)F
101.3 kPa, x2 = 0
Conditions | viscosity [mPa·s]
293.15 K | 0.361
298.15 K | 0.346
303.15 K | 0.332
308.15 K | 0.32
313.15 K | 0.309
318.15 K | 0.298
323.15 K | 0.288
328.15 K | 0.279
333.15 K | 0.271

CCCC[P+](C)(CCCC)CCCC.COS(=O)(=O)[O-] + CN1CCCC1=O
101 kPa
Conditions | viscosity [mPa·s]
293.15 K, x1 = 0.8086 | 530
298.15 K, x1 = 0.056 | 7.6
298.15 K, x1 = 0.3764 | 80
298.15 K, x1 = 0.7129 | 290
298.15 K, x1 = 0.8086 | 370
298.15 K, x1 = 1 | 520
303.15 K, x1 = 0.0914 | 4.9
303.15 K, x1 = 0.1773 | 10.8
303.15 K, x1 = 0.2318 | 15.5
303.15 K, x1 = 0.2971 | 25
303.15 K, x1 = 0.8086 | 260
303.15 K, x1 = 0.9022 | 330
303.15 K, x1 = 0.9468 | 350
313.15 K, x1 = 0.056 | 1
313.15 K, x1 = 0.1773 | 4.5
318.15 K, x1 = 0.2318 | 7.1
318.15 K, x1 = 0.7129 | 73
318.15 K, x1 = 0.8086 | 112
323.15 K, x1 = 0.0914 | 2.5
323.15 K, x1 = 0.6014 | 30

CCCC[P+](C)(CCCC)CCCC.COS(=O)(=O)[O-] + CN(C)C=O
100 kPa
Conditions | viscosity [mPa·s]
293.15 K, x1 = 0.3321 | 27.12
293.15 K, x1 = 0.4272 | 67.1
293.15 K, x1 = 0.9362 | 625
298.15 K, x1 = 1 | 521
303.15 K, x1 = 0.0765 | 2.239
303.15 K, x1 = 0.8837 | 287
308.15 K, x1 = 0.6717 | 99.2
313.15 K, x1 = 0.0474 | 1.983
313.15 K, x1 = 1 | 217
318.15 K, x1 = 0.2582 | 8.21
318.15 K, x1 = 0.3321 | 12.45
323.15 K, x1 = 0.1508 | 3.946
323.15 K, x1 = 0.8837 | 112.5

CCCC[n+]1ccn(C)c1.F[P-](F)(F)(F)(F)F + CN(C)C=O
101 kPa
Conditions | viscosity [mPa·s]
293.15 K, x2 = 0.3999 | 39.7
303.15 K, x2 = 0 | 187.6
303.15 K, x2 = 0.7963 | 2.42
303.15 K, x2 = 0.9399 | 1.21
308.15 K, x2 = 0.3002 | 30.91
308.15 K, x2 = 0.6 | 7.89
308.15 K, x2 = 0.7 | 4.71
313.15 K, x2 = 0.8543 | 1.7
318.15 K, x2 = 0 | 95.8
318.15 K, x2 = 0.2 | 31.22
318.15 K, x2 = 0.6 | 6.16
323.15 K, x2 = 0.4909 | 8.38
323.15 K, x2 = 0.6262 | 4.46
